Test results reported in ChEMBL document CHEMBL1156829 (Proc Natl Acad Sci U S A, 2008).
pEC50: −log10 of the molar value.

Legend:
Plasmodium falciparum [1] = test: NOVARTIS: Inhibition of Plasmodium falciparum W2 (drug-resistant) proliferation in erythrocyte-based infection assay; format: functional, organism-based; settings: Plasmodium falciparum, W2; read-out: EC50
[2] = NOVARTIS: Cytotoxicity against human hepatocellular carcinoma cell line (Huh7); format: toxicity, cell-based, Huh-7; settings: Huh7 cells (hepatocellular carcinoma cell line)
Plasmodium falciparum [3] = test: NOVARTIS: Inhibition of Plasmodium falciparum 3D7 (drug-susceptible) proliferation in erythrocyte-based infection assay; format: functional, organism-based; settings: Plasmodium falciparum, 3D7

SMILES | pEC50 (Plasmodium falciparum [1]) | CC50 [2] [µM] | pEC50 (Plasmodium falciparum [3])
C=CC1CN2CCC1CC2C(O)c1ccnc2ccc(OC)cc12 (stereo not given) | 7.27 | 82.5 | 7.93
COc1ccc(NC(=O)C2c3ccccc3C(=O)N(CC(C)C)C2c2cccs2)cc1OC (stereo not given) | 7.16 | > 100 | 7.12
CC[C@]1(C2OC(C3O[C@](O)(CO)[C@@H](C)C[C@H]3C)C[C@H]2C)CCC([C@@]2(C)CC[C@@]3(C[C@@H](O)[C@H](C)C([C@H](C)[C@H](OC)C(C)C(=O)O)O3)O2)O1 (stereo not given in full) | > 9.06 | 1.29 | 8.55
CC1=C(C(=O)OC(C)C)C(c2ccccc2Cl)C2=C(CC(c3ccccc3)CC2=O)N1 (stereo not given) | 7.42 | > 64.2 | 6.53
c1ccc(CCNc2cccc3ccccc23)cc1 | > 8.12 | > 10 | 6.89
Cc1ccc(C2Sc3ccccc3NC3=C2C(=O)c2ccccc23)cc1 (stereo not given) | 7.33 | 68.6 | 6.60
CCCCCc1ccc(OCCOCC[n+]2ccccc2)c(CCCCC)c1 | 8.16 | > 10 | 8.15
CC1(C)C2CCC(C2)C1(C)NC(=S)NN=Cc1ccccn1 (stereo not given) | 7.42 | 54.7 | 7.46
Cc1cc(Nc2ccc(OCc3ccccc3)cc2)nc2cc(O)ccc12 | 7.93 | 17.2 | 7.13
COC(=O)C1=C(C)NC2=C(C(=O)CC(c3ccc(OC)c(OC)c3)C2)C1c1cccs1 (stereo not given) | 7.15 | > 100 | 6.88
COC(=O)C1=C(C)NC(=Cc2cc(C)n(-c3cc(C)ccc3OC)c2C)C1=O | 7.15 | > 100 | 7.46
Cc1ccn2c(NC(C)(C)CC(C)(C)C)c(-c3ccccc3OC(=O)C(C)(C)C)nc2c1 | > 8.10 | > 11.1 | 6.28
CCOC(=O)C(=O)N1c2ccccc2-c2c(ssc2=S)C1(C)C | 7.13 | > 100 | 7.04
CCOC(=O)C1=C(C)NC2=C(C(=O)CC(c3ccc(OC)c(OC)c3)C2)C1c1cccc(Cl)c1 (stereo not given) | 7.25 | > 74.6 | 7.05
CCOC(=O)C1=C(C)NC2=C(C(=O)CC(c3ccc(OC)c(OC)c3)C2)C1c1cccc(C)c1 (stereo not given) | 7.24 | > 100 | 6.63
COc1ccc(C2CC(=O)C3=C(C2)NC(C)=C(C(=O)OC(C)C)C3c2ccc(F)cc2)cc1OC (stereo not given) | 7.88 | 22.8 | 8.02
COc1ccc(C2CC(=O)C3=C(C2)NC(C)=C(C(=O)OC2CCCC2)C3c2ccccc2OC)cc1OC (stereo not given) | 7.14 | > 100 | 6.67
CC1=C(C(=O)OC(C)C)C(c2ccc([N+](=O)[O-])cc2)C2=C(CC(c3ccc(Cl)cc3)CC2=O)N1 (stereo not given) | 7.25 | > 100 | 5.93
COCCOC(=O)C1=C(C)NC2=C(C(=O)CC(c3ccc(OC)c(OC)c3)C2)C1c1cccc(Cl)c1Cl (stereo not given) | 7.24 | > 100 | 6.75
Cn1nc(C(=O)N2CCCCCC2)c2c1CCC(NCC(C)(C)N1CCOCC1)C2 (stereo not given) | 8.26 | > 9.56 | 7.65
COc1cccc(-c2ccc(O)c(CN3CCCCC3)c2)n1 | 7.26 | > 95.8 | 6.33
CCOC(=O)C1=C(C)NC2=C(C(=O)C(C(=O)OCC)C(c3cccc(OC)c3)C2)C1c1ccc([N+](=O)[O-])cc1 (stereo not given) | 7.43 | > 54.6 | 7.27

SMILES | pEC50 (Plasmodium falciparum [1]) | CC50 [2] [µM] | pEC50 (Plasmodium falciparum [3])
NC(Cc1ccccc1)C(=O)N1CCn2c(nc(-c3ccccc3)c2Nc2ccc3c(c2)OCO3)C1 (stereo not given) | 7.54 | 42.8 | 7.52
CCCCNC(=O)C(c1cccc(OC)c1)N1C(=O)c2cc(Oc3ccccc3)ccc2NC(=O)C1CO (stereo not given) | > 8.10 | > 14 | 6.74
CC(C)c1nc(N2CCN(C(=O)Nc3ccccc3)CC2)c(C#N)c2c1COC(C)(C)C2 | 7.17 | > 100 | 7.27
CCCCCCCC(=O)N(C)CCCNc1ccnc2cc(Cl)ccc12 | > 8.23 | > 9.69 | 6.62
C/C=C/C(C(=O)NCCCC)N1C(=O)c2cc(NC(C)=O)ccc2NC(=O)[C@@H]1C (stereo not given in full) | 8.34 | 7.59 | 6.70
COCCOC(=O)C1=C(C)NC2=C(C(=O)CC(c3ccc(OC)cc3)C2)C1c1ccc(F)cc1 (stereo not given) | 7.23 | > 100 | 6.79
CCCOC(=O)C1=C(C)NC2=C(C(=O)CC(c3ccc(OC)c(OC)c3)C2)C1c1cccc([N+](=O)[O-])c1 (stereo not given) | 7.44 | > 62.4 | 6.84
CC1CCN(C2=C(NC3CCCC3)C(=O)c3ccccc3C2=O)CC1 | 7.85 | 24.4 | 8.04
CCOC(=O)C1=C(C)NC2=C(C(=O)CC(c3ccc(OC)cc3)C2)C1c1ccsc1 (stereo not given) | 7.21 | > 100 | 6.52
Cc1ccc2c(Cl)c(C(=O)N3CC(C)OC(C)C3)sc2c1 (stereo not given) | 7.14 | > 100 | 6.99
COc1ccc(C2CC(=O)C3=C(C2)NC(C)=C(C(=O)OC2CCCCC2)C3c2ccc([N+](=O)[O-])cc2)cc1OC (stereo not given) | 7.21 | > 100 | 6.71
COc1cccc(C(=O)Oc2ccccc2-c2nc3cc(C)ccn3c2NC(C)(C)CC(C)(C)C)c1 | 8.21 | > 10 | 6.01
O=C(Cc1ccccc1)NCc1ccc(Nc2c(-c3cccnc3)nc3ccccn23)cc1 | > 8.21 | > 10 | 7.47
CCOC(=O)C1=C(C)NC2=C(C(=O)C(C(=O)OCC)C(c3ccccc3OC)C2)C1c1ccc(OC)c(OC)c1 (stereo not given) | 7.13 | > 100 | 7.08
COc1ccc(CCN2C(=S)NC3c4cccc(OC)c4OC2(C)C3C(=O)Nc2ccc(C)cc2C)cc1OC (stereo not given) | 7.16 | > 100 | 6.49
Cc1noc(C)c1S(=O)(=O)N(Cc1ccccc1)CC(O)CN1CCC(NC(=O)c2cccc3ccccc23)C1 (stereo not given) | > 8.19 | > 10 | 6.90
Cc1ccn2c(NC(C)(C)CC(C)(C)C)c(-c3ccccc3OC(=O)c3ccccc3F)nc2c1 | 8.20 | > 10 | 6.02
CC1(C)C2CCC1(C)C(NCc1ccccc1O)C2 (stereo not given) | 7.50 | 48.6 | 6.97
CCOCCCNc1nc2cc(OC)c(OC)cc2c2nc(-c3ccccc3)nn12 | 7.25 | > 100 | 7.08
CCOC(=O)C1=C(C)NC2=C(C(=O)CC(c3ccc(OC)c(OC)c3)C2)C1c1cccc(Br)c1 (stereo not given) | 7.18 | > 100 | 6.77
COc1cc(COc2cc(N)c(Cl)cc2C(=O)CCC2CCN(CCNS(C)(=O)=O)CC2)cc(OC)c1 | > 8.07 | > 13.1 | < 6.10
COc1cccc(-c2cc(C(=O)Nc3cc(Cl)ccc3O)on2)c1 | 7.19 | > 100 | 6.04

SMILES | pEC50 (Plasmodium falciparum [1]) | CC50 [2] [µM] | pEC50 (Plasmodium falciparum [3])
COc1ccc(C2CC(=O)C3=C(C2)NC(=O)CC3c2ccc([N+](=O)[O-])cc2)cc1OC (stereo not given) | 7.19 | > 100 | 6.46
CCOC(=O)C1=C(C)NC2=C(C(=O)CC(c3ccc(OC)c(OC)c3)C2)C1c1ccc([N+](=O)[O-])cc1 (stereo not given) | 7.19 | > 100 | 6.74
COc1ccc(CNCc2cc(-c3ccnc4cc(Cl)ccc34)ccc2O)c(OC)c1 | 7.42 | 59.1 | 6.02
CCOC(=O)C1=C(C)NC2=C(C(=O)CC(C)(C)C2)C1c1ccc(Cl)cc1 (stereo not given) | 7.17 | > 100 | 6.94
CC1CC(C)CN(C(=O)c2sc3ccccc3c2Cl)C1 (stereo not given) | 7.19 | > 100 | 7.45
COC(=O)C1=C(C)NC(=Cc2cc(C)n(-c3ccccc3C(F)(F)F)c2C)C1=O | 7.15 | > 100 | 7.66
CC(C)(C)NCC(O)Cn1c2ccc(Br)cc2c2cc(Br)ccc21 (stereo not given) | 7.85 | 20.7 | 6.67
c1ccc(Cc2cc[n+](Cc3ccccc3)cc2)cc1 | 7.14 | > 100 | 6.84
CCOC(=O)c1c(C)nc2c(c1C)c(=O)oc1ccccc12 | 7.15 | > 100 | < 4.90
COc1ccc(C(=O)Oc2ccccc2-c2nc3ccccn3c2NC(C)(C)CC(C)(C)C)cc1 | 8.12 | > 10 | < 5.80
CCOC(=O)C1=C(C)NC2=C(C(=O)C(C(=O)OC)C(C)C2)C1c1cc(Br)c(OC)c(OCC)c1 (stereo not given) | 7.14 | > 100 | 6.15
CCN1c2ccc([N+](=O)[O-])cc2N(CC)C1(C)c1ccccc1 (stereo not given) | 7.40 | 67.6 | 6.69
CCC(C)OC(=O)C1=C(C)NC2=C(C(=O)CC(c3ccc(Cl)cc3)C2)C1c1ccccc1F (stereo not given) | 7.23 | > 100 | 6.69
COC(=O)c1c(-c2c(Cl)cccc2Cl)noc1/C=C/Nc1ccccc1 | > 8.17 | > 10 | 6.54
CCC(C)(C)n1nnnc1C(c1cc2ccc(C)cc2[nH]c1=O)N1CCN(c2ccccc2)CC1 (stereo not given) | 7.21 | > 100 | 6.34
CC(=O)N1c2ccc([N+](=O)[O-])cc2C(C)(c2ccccc2)CC1(C)C (stereo not given) | 7.21 | > 100 | 5.96
COc1cc(-c2cc(C(F)(F)F)n3ncc(C(=O)Nc4cc(C)ccc4O)c3n2)cc(OC)c1OC | 7.15 | > 100 | 6.75
COC(=O)C1=C(C)NC2=C(C(=O)CC(c3ccc(OC)c(OC)c3)C2)C1c1ccccc1Br (stereo not given) | 7.14 | > 100 | 6.87
CCCCCCCSc1nsc(NC(=O)CCC)n1 | > 8.19 | > 10 | < 5.88
CC(C)(C)NC(=S)NN=CC=NNC(=S)NC(C)(C)C | 7.24 | > 100 | 6.68
CC(C)OCCCNc1sc(S(=O)(=O)c2ccccc2)nc1S(=O)(=O)c1ccc(Cl)cc1 | 7.24 | > 100 | 7.03
